{
  "source": "BindingDB's records for patent US12281118",
  "about": "(Shanghai Ringene Biopharma, 2025)",
  "data": [
    {"molecular_target": "T1, Tyrosine-protein phosphatase non-receptor type 11 (Homo sapiens, UniProt Q06124)", "T1 sequence (Q06124 whole entry)": "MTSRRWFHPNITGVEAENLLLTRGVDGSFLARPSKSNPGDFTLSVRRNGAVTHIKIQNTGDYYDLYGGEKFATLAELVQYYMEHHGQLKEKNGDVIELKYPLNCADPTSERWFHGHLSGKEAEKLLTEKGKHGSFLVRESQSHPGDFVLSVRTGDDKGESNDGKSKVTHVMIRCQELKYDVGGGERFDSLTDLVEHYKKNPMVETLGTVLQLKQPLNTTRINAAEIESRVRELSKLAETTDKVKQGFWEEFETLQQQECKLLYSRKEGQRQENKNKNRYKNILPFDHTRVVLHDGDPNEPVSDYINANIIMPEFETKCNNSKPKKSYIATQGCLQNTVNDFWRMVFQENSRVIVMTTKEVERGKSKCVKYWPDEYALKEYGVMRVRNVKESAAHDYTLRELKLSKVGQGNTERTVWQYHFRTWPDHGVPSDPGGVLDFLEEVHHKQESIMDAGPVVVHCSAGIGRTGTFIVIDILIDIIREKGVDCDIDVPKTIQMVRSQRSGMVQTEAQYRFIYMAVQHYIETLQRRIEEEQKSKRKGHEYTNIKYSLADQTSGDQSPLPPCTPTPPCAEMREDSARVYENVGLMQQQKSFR", "assay": "Test of Inhibitory Activity Assay", "method": "(1) Preparing 1×Reaction Buffer according to the BPS Biosciences' Instructions for Use of the SHP2 enzyme. (2) Preparing a compound concentration gradient: Test the test compound at 10 μM under 3× dilution for 10 concentrations, diluting to a 100% dimethyl sulfoxide solution at a 100× final concentration in a 384-well plate, and diluting the compound with Precision 4× for 10 concentrations. […] (3) Preparing the activation peptide solution at a 5× final concentration with the 1×Reaction Buffer, adding 5 μL of the solution to a reaction plate, respectively, and centrifuging at 1000 rpm for 1 min. (4) Preparing an enzyme solution at a 2.5× final concentration with the 1×Reaction Buffer, adding 10 μL of the solution to the reaction plate, respectively, centrifuging at 1000 rpm for 1 min, and incubating at room temperature for 60 min. […] (6) Adding 30 μL of stop test solution to stop the reaction, centrifuging at 1000 rpm for […], and mixing well by shaking. (7) Reading the conversion rate with a Caliper EZ Reader. (7) Data analysis:%Inhibition=Conversion%_max-Conversion%_sampleConversion%_max-Conversion%_min×100Wherein: Conversion %/_sample is the reading of a conversion rate of a sample; Conversion %_min: mean of negative control wells, which represents the reading of a conversion rate in absence of enzyme activity wells; Conversion %_max: mean of a ratio of positive control wells, which represents the reading of a conversion rate in absence of compound inhibition wells.", "units": {"IC50": "nM"}, "values": [
      {"smiles": "Cc1nc(N2CCC3(CC2)Cc2ccccc2[C@H]3N)n2ccnc2c1Sc1cccnc1C(F)(F)F", "note": "[US12281118, Example 2]", "IC50": 6.3},
      {"smiles": "Cc1nc(N2CCC(C)(N)CC2)n2ncnc2c1-c1cccc(Cl)c1Cl", "note": "[US12281118, Example 21]", "IC50": "> 1000"},
      {"smiles": "Cc1nc(N2CCC(C)(N)CC2)n2cnnc2c1-c1cccc(Cl)c1Cl", "note": "[US12281118, Example 22]", "IC50": "> 1000"},
      {"smiles": "Cc1cc(N2CCC(C)(N)CC2)n2cnnc2c1-c1cccc(Cl)c1Cl", "note": "[US12281118, Example 23]", "IC50": "> 1000"},
      {"smiles": "Cc1nc(N2CCC(C)(N)CC2)n2ccnc2c1Sc1cccc(Cl)c1Cl", "note": "[US12281118, Example 25]", "IC50": 65},
      {"smiles": "CC1(N)CCN(c2nc(CF)c(-c3cccc(Cl)c3Cl)c3nccn23)CC1", "note": "[US12281118, Example 28]", "IC50": 53}
    ]}
  ]
}
